Among the data in PubChem BioAssay AID624057 (Broad Institute, 2012) are IC50 and viability values, retold here.

The structures appear in SMILES notation. Several values for one entry are separate records, joined by “and”; a condition that tells them apart may be missing. Equal entries are not always repeated. Activity calls are given as the source filed them. No rule for the calls is given here.

A word on the IC50: it is the concentration that gives 50% inhibition. A word on the viability: it is a read-out of living cells in per cent, often relative to untreated cells.

Assay [1] has as its target Glycogen synthase kinase-3 beta (Homo sapiens) (UniProt P49841). Put plainly: lower pTau relative to total Tau in cells – cell-based, SH-SY5Y, ELISA, pTau Ser199, powder samples, dose response (AID 624057).
Experiment in assay [2]: as above
The settings on record: measured here: cell survival (total Tau) top dose, at 35 µM, stronger effect = lower value.

Glycogen synthase kinase-3 beta (Homo sapiens), sequence (P49841 whole entry, looked up): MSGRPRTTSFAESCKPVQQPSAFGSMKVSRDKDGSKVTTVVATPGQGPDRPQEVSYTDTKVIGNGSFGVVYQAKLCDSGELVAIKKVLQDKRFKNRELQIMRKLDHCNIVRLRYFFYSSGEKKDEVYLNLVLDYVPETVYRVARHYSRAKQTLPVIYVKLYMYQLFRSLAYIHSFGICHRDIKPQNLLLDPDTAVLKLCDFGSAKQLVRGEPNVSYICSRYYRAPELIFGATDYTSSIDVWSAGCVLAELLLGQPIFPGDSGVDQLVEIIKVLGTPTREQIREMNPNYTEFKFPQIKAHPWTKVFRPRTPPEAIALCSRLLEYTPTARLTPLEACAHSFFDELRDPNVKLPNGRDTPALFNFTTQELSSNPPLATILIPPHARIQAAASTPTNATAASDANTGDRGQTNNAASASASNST

`CSc1ccccc1C1C2=C(CC(C)(C)CC2=O)Nc2n[nH]c(C)c21` (stereo not drawn): the half-maximal inhibitory concentration (IC50) in assay [1] is 2850 nM. Further, the viability in assay [2] worked out at 106%.

On to `CC1(C)CC(=O)C2=C(C1)Nc1n[nH]c(C(F)(F)F)c1C2(C)c1ccccc1` (stereo not drawn), for which the IC50 in assay [1] was 1870 nM.

As for `Cc1[nH]nc2c1C(c1cccc(C#N)c1)C1=C(CC(C)(C)CC1=O)N2` (stereo not drawn), in assay [1], the half-inhibitory concentration (IC50) is 2500 nM. For the same compound, the viability in assay [2] came out at 119%.

For the compound `CC1(C)CC(=O)C2=C(C1)Nc1n[nH]c(C(F)(F)F)c1C2c1ccccc1` (stereo not drawn), the IC50 in assay [1] was 510 nM.

In the case of `COc1ccccc1[C@H]1C2=C(CC(C)(C)CC2=O)Nc2n[nH]c(C(F)(F)F)c21`, in assay [1], the IC50 is > 35000 nM (inactive).

Consider `COc1ccccc1C1C2=C(CC(C)(C)CC2=O)Nc2n[nH]c(C)c21` (stereo not drawn), for which the IC50 in assay [1] is 7100 nM.

For the compound `CC1(C)CC(=O)C2=C(C1)Nc1n[nH]c(C(F)(F)F)c1C2c1cccc(F)c1C(F)(F)F` (stereo not drawn), the IC50 in assay [1] was 1380 nM. Further, the viability in assay [2] is 57.1%.

Turning to `CC1(C)CC(=O)C2=C(C1)Nc1n[nH]c(C(F)(F)F)c1C2c1ccccc1C(F)(F)F` (stereo not drawn), the IC50 in assay [1] was 410 nM.

For `Cc1[nH]nc2c1[C@H](c1ccccc1C(F)(F)F)C1=C(CC(C)(C)CC1=O)N2`, in assay [1], the IC50 is > 35000 nM (inactive).

As to `Cc1[nH]nc2c1C(c1ccccc1F)C1=C(CC(C)(C)CC1=O)N2` (stereo not drawn), in assay [2], the viability stood at 113%.

For `Cc1[nH]nc2c1C(c1ccccc1C(F)(F)F)C1=C(CC(C)(C)CC1=O)N2` (stereo not drawn), in assay [1], the half-inhibitory concentration (IC50) is 4240 nM.

Turning to `Cc1[nH]nc2c1C(c1cccc3nonc13)C1=C(CC(C)(C)CC1=O)N2` (stereo not drawn), the 50% inhibitory concentration (IC50) in assay [1] was 2270 nM. Moreover, the viability in assay [2] was 112%.

`COc1ccccc1C1C2=C(CC(C)(C)CC2=O)Nc2n[nH]c(C(F)(F)F)c21` (stereo not drawn): the IC50 in assay [1] is 2750 nM and 760 nM.

Consider `Cc1[nH]nc2c1C(c1ccccc1Cl)C1=C(CC(C)(C)CC1=O)N2` (stereo not drawn), for which the IC50 in assay [1] is 2490 nM.

Regarding `Cc1[nH]nc2c1[C@@H](c1ccccc1C(F)(F)F)C1=C(CC(C)(C)CC1=O)N2`, in assay [1], the IC50 is 2270 nM. Besides, the viability in assay [2] was 110%.

`Cc1[nH]nc2c1C(c1cccc(C(F)(F)F)c1)C1=C(CC(C)(C)CC1=O)N2` (stereo not drawn): the concentration for half-maximal inhibition (IC50) in assay [1] is 4680 nM.

As to `COc1ccccc1[C@@H]1C2=C(CC(C)(C)CC2=O)Nc2n[nH]c(C(F)(F)F)c21`, in assay [1], the IC50 was 560 nM.

With `COc1ccccc1[C@@H]1C2=C(CC(C)(C)CC2=O)Nc2n[nH]c(C)c21`, in assay [1], the IC50 is 6570 nM and > 35000 nM (inactive).
